Data from patent US20260165983A1, “VITAMIN A FORMULATION” (ADISSEO FRANCE S.A.S., priority 2020, published 2026).

How the values were obtained:
[1] = Dynamic oxidation test by DSC (differential scanning calorimeter) under oxygen flow; type: physicochemical; conditions: oxygen flow 50 ml/min; vitamin A acetate with 20% by weight antioxidant; higher temperature = higher antioxidant power
Experimental: (§1) The antioxidant power measurement methods used in the examples for antioxidant and vitamin A (as vitamin A acetate) mixtures are shown below.
1) Dynamic Oxidation Test by DSC (Differential Scanning Calorimeter)
It is carried out under oxygen flow (50 ml/min) then the temperature is raised to a temperature above the melting point of vitamin A (i.e. above 60° C.).
The oxidation corresponds to an exothermic phenomenon which occurs at a given temperature. For BHT, it occurs at 153° C. The higher the oxidation temperature, the higher the antioxidant power.
All the samples having a temperature greater than or equal to 120° C. will be retained for a much longer Oxipres test.

[2] = Oxipres test (oxygen consumption under O2 pressure); type: physicochemical
Excerpt: as §1
This test consists of putting the samples under O2 pressure at a given temperature. The method allows determining the kinetics of oxygen consumption, expressed by a variation of O2 (ΔP in bars), this variation being all the smaller as the antioxidant power is high.

Compound	DSC DYN Onset (oxidation temperature) [1] [°C]	Oxipres Time ([2]; under O2 pressure at a given temperature) [h]	Oxipres ΔP (variation of O2) ([2]; under O2 pressure, smaller ΔP = higher antioxidant power) [Bars]
Cc1cc(C(C)(C)C)c(O)c(C(C)(C)C)c1 [BHT, 2,6-di-tert-butyl-4-methyl-phenol, reference compound]	153	–	–
CC(=O)OC/C=C(C)/C=C/C=C(C)/C=C/C1=C(C)CCCC1(C)C [Sample 1, vitamin A acetate]	60	0	5.0
